Results as given in patent US20170107203A1, “HETEROCYCLIC INHIBITORS OF THE SODIUM CHANNEL” (EPIRUS BIOPHARMACEUTICALS, INC., priority 2014, published 2017).

Experiments:
Type in all cases: cell-based
[1] = target: T1, hNav1.7 (Homo sapiens, UniProt Q15858); experiment: Nav1.7 potency, Patchliner automated patch clamp; conditions: automated patchclamp
T1 construct: expressed in transfected cells
Method: (§1) The generation of a HEK 293F cell line stably expressing human Nav1.7/Navp1 was achieved by co-transfecting human SCN9A and human SCN1B cDNAs, subcloned into plasmid vectors, utilizing standard transfection techniques. Clones were selected using appropriate selection agents (0.3 mg/mL Zeocin and 0.8 mg/mL Geneticin) and maintained in Dulbecco's Modified Eagle medium, 10% fetal bovine serum, 1% non-essential amino acids to ˜80% confluence at 37° C. in a humidified incubator with 95% atmosphere and 5% CO2.
(§2) In some cases, the potency of compounds was measured using either the Patchliner automated patch clamp platform (Nanion) or manual patch clamp techniques. Both approaches allowed the compounds to be characterized based upon the ability of a compound to modulate use- and/or state-dependence. The potency data is tabulated in Table 3 and is represented by eight data fields. The first four fields represent potency data measured with the Patchliner automated platform under varying use- and state-dependent electrophysiology protocols similar to the Patch express protocols detailed above. The first data column describes the potency of compounds when the Nav1.7 channel is being repetitively activated at a 7 Hz hyperpolarization frequency (Table 3: hNav1.7: IC50 of inward current block at 7 Hz, Automated patchclamp). The second data column represents the potency at which 50% of the initial hyperpolarization pulse is inhibited by the compounds (Table 3: hNav1.7: IC50 of P1 block, Automated patchclamp). The third data column details the potency of compounds in their ability to block 50% of Nav1.7 channels when these channels are induced into the slow inactivated state (Table 3: hNav1.7: IC50 of slow inactivation block, Automated patchclamp). […] The next three data fields describe the data generated from manual patchclamp electrophysiology measurements using similar methods to those employed for automated patchclamp studies. […] The last column characterizes the state-dependence of compound inhibition. Compounds that maintain the greatest potency for the slow inactivated state over fast inactivated or tonic inhibition at 0.25 Hz are characterized as “state dependent, blocker of slow inactivation”.

[2] = target: T1, hNav1.7; experiment: Nav1.7 potency, manual patch clamp; conditions: slow inactivated state; manual patchclamp; read-out: Nav1.7 IC50 SLOW INACTIVATION BLOCK (nM) (Manual Patchclamp)
Method: as §1, §2

[3] = target: T2, human Nav1.7 (Homo sapiens, UniProt Q15858); experiment: Assessment of Nav1.7 activity on PatchXpress (voltage dependence / slow inactivation parameters); conditions: compound at 10 μM, relative to 0.2% DMSO vehicle control; for hNav1.7: Reduction in current at 20 mV (normalized data) Delta Ratio: before/after 30 sec conditioning pulse at 20 mV; for hNav1.7: Shift in voltage dependence of inactivation (mV) Delta Vhalf: PatchXpress
T2 construct: expressed in transfected cells
Outline: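 HEK293F cells stably co-expressing hNav1.7 and β1 were recorded by automated patch clamp in TEA-based external solution (50 mM NaCl, pH 7.4) with CsF internal solution (pH 7.2). A variable conditioning prepulse inactivated channels, followed by a brief hyperpolarizing step and a depolarizing test pulse. Compounds at 10 μM were compared with 0.2% DMSO vehicle across four parameters.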

[4] = initial pulse (P1), read-out: Nav1.7 IC50 P1 BLOCK (nM) (Automated Patchclamp)
[5] = slow inactivated state, read-out: Nav1.7 IC50 SLOW INACTIVATION BLOCK (nM) (Automated Patchclamp)
[6] = 7 Hz, read-out: Nav1.7 IC50 INWARD CURRENT BLOCK (nM) (7 Hz, Automated Patchclamp)

T2 sequence (Q15858 whole entry): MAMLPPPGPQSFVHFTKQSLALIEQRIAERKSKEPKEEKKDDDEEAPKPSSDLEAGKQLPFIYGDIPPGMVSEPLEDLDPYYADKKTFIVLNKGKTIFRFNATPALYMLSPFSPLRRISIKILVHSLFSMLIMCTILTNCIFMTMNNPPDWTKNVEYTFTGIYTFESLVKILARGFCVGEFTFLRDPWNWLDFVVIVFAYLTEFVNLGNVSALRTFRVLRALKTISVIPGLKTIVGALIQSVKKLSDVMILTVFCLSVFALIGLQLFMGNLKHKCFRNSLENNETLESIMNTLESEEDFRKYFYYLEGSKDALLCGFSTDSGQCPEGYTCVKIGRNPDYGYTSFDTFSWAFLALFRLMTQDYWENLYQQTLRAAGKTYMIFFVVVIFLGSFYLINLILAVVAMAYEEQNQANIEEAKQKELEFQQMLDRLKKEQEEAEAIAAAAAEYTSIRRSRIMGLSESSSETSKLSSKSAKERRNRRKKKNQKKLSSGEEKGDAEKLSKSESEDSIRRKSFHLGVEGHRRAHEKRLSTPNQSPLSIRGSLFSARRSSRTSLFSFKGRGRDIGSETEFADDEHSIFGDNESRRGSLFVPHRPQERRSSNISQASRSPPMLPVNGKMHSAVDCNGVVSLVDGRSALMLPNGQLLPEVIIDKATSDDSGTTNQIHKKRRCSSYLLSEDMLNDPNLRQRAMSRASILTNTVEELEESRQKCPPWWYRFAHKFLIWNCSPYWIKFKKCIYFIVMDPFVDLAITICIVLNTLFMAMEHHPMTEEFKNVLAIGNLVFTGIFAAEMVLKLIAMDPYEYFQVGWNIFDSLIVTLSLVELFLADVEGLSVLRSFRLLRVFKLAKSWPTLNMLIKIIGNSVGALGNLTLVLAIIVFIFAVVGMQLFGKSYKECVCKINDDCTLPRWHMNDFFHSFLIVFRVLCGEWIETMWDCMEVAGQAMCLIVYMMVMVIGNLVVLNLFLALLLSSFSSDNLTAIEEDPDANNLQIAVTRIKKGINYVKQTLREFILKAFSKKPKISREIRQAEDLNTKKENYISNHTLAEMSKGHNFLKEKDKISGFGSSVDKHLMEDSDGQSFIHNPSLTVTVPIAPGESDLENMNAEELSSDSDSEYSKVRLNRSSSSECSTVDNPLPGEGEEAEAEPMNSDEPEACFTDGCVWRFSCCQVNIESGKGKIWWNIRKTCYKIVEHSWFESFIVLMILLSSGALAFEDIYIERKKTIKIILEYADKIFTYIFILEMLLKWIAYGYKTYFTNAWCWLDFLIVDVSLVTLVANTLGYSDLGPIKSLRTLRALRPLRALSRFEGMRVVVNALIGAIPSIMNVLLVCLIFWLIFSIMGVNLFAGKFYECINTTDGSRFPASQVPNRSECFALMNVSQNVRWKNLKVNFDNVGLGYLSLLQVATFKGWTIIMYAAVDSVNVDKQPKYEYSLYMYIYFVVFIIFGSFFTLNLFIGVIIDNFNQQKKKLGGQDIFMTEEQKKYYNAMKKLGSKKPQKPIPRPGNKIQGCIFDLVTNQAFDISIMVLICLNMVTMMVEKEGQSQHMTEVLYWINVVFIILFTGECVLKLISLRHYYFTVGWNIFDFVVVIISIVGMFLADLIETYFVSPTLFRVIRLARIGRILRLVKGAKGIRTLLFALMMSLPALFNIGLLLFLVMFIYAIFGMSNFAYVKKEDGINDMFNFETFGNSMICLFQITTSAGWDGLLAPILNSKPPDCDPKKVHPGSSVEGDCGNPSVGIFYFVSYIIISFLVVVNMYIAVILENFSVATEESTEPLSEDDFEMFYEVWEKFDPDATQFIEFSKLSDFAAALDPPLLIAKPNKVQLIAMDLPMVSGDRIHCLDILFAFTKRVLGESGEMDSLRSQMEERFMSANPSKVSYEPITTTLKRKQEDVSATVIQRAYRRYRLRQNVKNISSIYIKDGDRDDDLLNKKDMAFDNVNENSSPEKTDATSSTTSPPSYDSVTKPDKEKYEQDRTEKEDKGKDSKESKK
T2 sequence (Q07699 19-218 partner): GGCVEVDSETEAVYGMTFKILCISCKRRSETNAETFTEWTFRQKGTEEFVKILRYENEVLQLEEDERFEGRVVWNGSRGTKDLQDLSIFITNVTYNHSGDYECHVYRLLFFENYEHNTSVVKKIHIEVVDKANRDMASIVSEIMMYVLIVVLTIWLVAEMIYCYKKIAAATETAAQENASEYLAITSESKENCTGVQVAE
T1 sequence (Q15858 whole entry): as the sequence (Q15858 whole entry) above
T1 sequence (Q07699 19-218 partner): as the sequence (Q07699 19-218 partner) above

SMILES | IC50 [1, 4] | IC50 [1, 5] | IC50 [2] | hNav1.7: Reduction in current at 20 mV (normalized data) Delta Ratio [3] | hNav1.7: Voltage dependence of activation (mV) VDEP [3] | hNav1.7: Voltage dependence of fast inactivation (mV) VDEP [3] | hNav1.7: Shift in voltage dependence of inactivation (mV) Delta Vhalf [3] | IC50 [1, 6]
CC(C)C[C@@H](N)C(=O)N[C@@H](C)COc1cc(C(F)(F)F)cc(C(F)(F)F)c1 [Compound 1, (R)-2-amino-N-((S)-1-(3,5-bis(trifluoromethyl)phenoxy)propan-2-yl)-4-methylpentanamide] | 15500 nM | 2580 nM | 568 nM | −0.30 | −8.60 mV | −6.80 mV | −20.90 mV | –
CC(C)C[C@@H](N)C(=O)NC(C)COc1cc(C(F)(F)F)cc(C(F)(F)F)c1 (stereo partly drawn) [Compound 6, (2R)-2-amino-N-(1-(3,5-bis(trifluoromethyl)phenoxy)propan-2-yl)-4-methylpentanamide] | 12700 nM | 2770 nM | – | −0.25 | −4.80 mV | −6.20 mV | −32.70 mV | 1660 nM
CC(C)CC(N)C(=O)N[C@@H](C)COc1cc(C(F)(F)F)cc(C(F)(F)F)c1 (stereo partly drawn) [Compound 10, 2-amino-N-((S)-1-(3,5-bis(trifluoromethyl)phenoxy)propan-2-yl)-4-methylpentanamide] | 11500 nM | 4120 nM | – | −0.20 | −3.70 mV | −3.50 mV | −31.40 mV | 1890 nM
NCC(=O)NCc1cc(C(F)(F)F)cc(C(F)(F)F)c1 [Compound 78, 2-amino-N-(3,5-bis(trifluoromethyl)benzyl)acetamide] | – | – | – | −0.04 | −10.5 mV | −4.6 mV | −4.2 mV | –
COC[C@@H](NC(C)=O)C(=O)NCc1cc(C(F)(F)F)cc(C(F)(F)F)c1 [Compound 79, (R)-2-acetamido-N-(3,5-bis(trifluoromethyl)benzyl)-3-methoxypropanamide] | – | – | – | −0.04 | −15.2 mV | −7.9 mV | −5.8 mV | –
COC[C@@H](N)C(=O)NCC(=O)NCc1cc(C(F)(F)F)cc(C(F)(F)F)c1 [Compound 80, (R)-2-amino-N-(2-((3,5-bis(trifluoromethyl)benzyl)amino)-2-oxoethyl)-3-methoxypropanamide] | – | – | – | −0.03 | −9.3 mV | −3.8 mV | −7.2 mV | –
C[C@@H](NC(=O)CN1CCNCC1=O)c1ccc(OCC(F)(F)F)cn1 [Compound 81, (R)-2-(2-oxopiperazin-1-yl)-N-(1-(5-(2,2,2-trifluoroethoxy)pyridin-2-yl)ethyl)acetamide] | – | – | – | −0.02 | −10.3 mV | −5 mV | −2.8 mV | –
C[C@@H](NC(=O)[C@@H]1CCCN1)c1ccc(OCC(F)(F)F)cn1 [Compound 82, (S)-N-((R)-1-(5-(2,2,2-trifluoroethoxy)pyridin-2-yl)ethyl)pyrrolidine-2-carboxamide] | – | – | – | −0.02 | −5.6 mV | −8.7 mV | −2.5 mV | –
C[C@@H](NC(=O)[C@H]1CCCN1)c1ccc(OCC(F)(F)F)cn1 [Compound 83, (R)-N-((R)-1-(5-(2,2,2-trifluoroethoxy)pyridin-2-yl)ethyl)pyrrolidine-2-carboxamide] | – | – | – | 0.01 | −3.1 mV | −0.5 mV | −1.5 mV | –
FC(F)(F)c1cc(C(F)(F)F)c2nc([C@H]3CCCCN3)[nH]c2c1 [Compound 84, (R)-2-(piperidin-2-yl)-5,7-bis(trifluoromethyl)-1H-benzo[d]imidazole] | – | – | – | 0.02 | −6.7 mV | −2.4 mV | 0 mV | –
O[C@@H]1CN[C@H](c2nc3cc(C(F)(F)F)cc(C(F)(F)F)c3[nH]2)C1 [Compound 85, (3S,5S)-5-(5,7-bis(trifluoromethyl)-1H-benzo[d]imidazol-2-yl)pyrrolidin-3-ol] | – | – | – | 0.03 | −3.4 mV | −3.2 mV | 0.3 mV | –
O=C(Cc1nc2cc(F)cc(F)c2[nH]1)NC1CCNCC1 [Compound 89, 2-(4,6-difluoro-1H-benzo[d]imidazol-2-yl)-N-(piperidin-4-yl)acetamide] | – | – | – | −0.01 | −10.6 mV | −4.4 mV | −3.6 mV | –
NC1CCN(C(=O)Cc2nc3cc(C(F)(F)F)cc(C(F)(F)F)c3[nH]2)CC1 [Compound 90, 1-(4-aminopiperidin-1-yl)-2-(4,6-bis(trifluoromethyl)-1H-benzo[d]imidazol-2-yl)ethan-1-one] | – | – | – | 0.01 | −2.9 mV | 0.1 mV | 2.3 mV | –
O=C1CNCCN1Cc1cc(C(F)(F)F)cc(C(F)(F)F)c1 [Compound 91, 1-(3,5-bis(trifluoromethyl)benzyl)piperazin-2-one] | – | – | – | 0.01 | −5 mV | −4.1 mV | −3.1 mV | –
COC[C@@H]1C(=O)N(Cc2cc(C(F)(F)F)cc(C(F)(F)F)c2)CCN1C(C)=O [Compound 92, (R)-4-acetyl-1-(3,5-bis(trifluoromethyl)benzyl)-3-(methoxymethyl)piperazin-2-one] | – | – | – | 0.01 | −7.1 mV | −3.9 mV | −2.2 mV | –
